{"source": "ChEMBL document CHEMBL5375952", "about": "“Discovery of Novel 8-Hydroxyquinoline Derivatives with Potent In Vitro and In Vivo Antifungal Activity” (J Med Chem, 2023)", "key": {"[1]": {"tested_on": "Candida albicans", "assay": "Synergistic antifungal activity against FLC-resistant Candida albicans 10 assessed as MIC of FLC incubated for 48 hrs by broth microdilution method", "assay_type": "functional"}, "[2]": {"tested_on": "Candida albicans", "assay": "Synergistic antifungal activity against FLC-resistant Candida albicans 14 assessed as MIC of FLC incubated for 48 hrs by broth microdilution method", "assay_type": "functional"}, "[3]": {"tested_on": "Candida albicans", "assay": "Synergistic antifungal activity against FLC-resistant Candida albicans 538 assessed as MIC of FLC incubated for 48 hrs by broth microdilution method", "assay_type": "functional"}, "[4]": {"tested_on": "Candida albicans", "assay": "Synergistic antifungal activity against FLC-resistant Candida albicans 540 assessed as MIC of FLC incubated for 48 hrs by broth microdilution method", "assay_type": "functional"}, "[5]": {"tested_on": "Candida albicans", "assay": "Synergistic antifungal activity against FLC-resistant Candida albicans 953 assessed as MIC of FLC incubated for 48 hrs by broth microdilution method", "assay_type": "functional"}, "[6]": {"tested_on": "Candida albicans", "assay": "Synergistic antifungal activity against FLC-resistant Candida albicans 1221 assessed as MIC of FLC incubated for 48 hrs by broth microdilution method", "assay_type": "functional"}, "[7]": {"tested_on": "Candida albicans", "assay": "Synergistic antifungal activity against FLC-resistant Candida albicans 5740 assessed as MIC of FLC incubated for 48 hrs by broth microdilution method", "assay_type": "functional"}, "[8]": {"tested_on": "Candida albicans", "assay": "Synergistic antifungal activity against FLC-resistant Candida albicans 512644 assessed as MIC of FLC incubated for 48 hrs by broth microdilution method", "assay_type": "functional"}, "[9]": {"tested_on": "Candida albicans", "assay": "Synergistic antifungal activity against FLC-resistant Candida albicans 710452 assessed as MIC of FLC incubated for 48 hrs by broth microdilution method", "assay_type": "functional"}, "[10]": {"tested_on": "Candida albicans", "assay": "Synergistic antifungal activity against FLC-resistant Candida albicans 710513 assessed as MIC of FLC incubated for 48 hrs by broth microdilution method", "assay_type": "functional"}, "[11]": {"tested_on": "Candida albicans", "assay": "Synergistic antifungal activity against FLC-resistant Candida albicans 8 assessed as fungal growth inhibition incubated for 48 hrs in presence of FLC by broth microdilution method", "assay_type": "functional"}, "[12]": {"tested_on": "Candida albicans", "assay": "Synergistic antifungal activity against FLC-resistant Candida albicans 10 assessed as fungal growth inhibition incubated for 48 hrs in presence of FLC by broth microdilution method", "assay_type": "functional"}, "[13]": {"tested_on": "Candida albicans", "assay": "Synergistic antifungal activity against FLC-resistant Candida albicans 14 assessed as fungal growth inhibition incubated for 48 hrs in presence of FLC by broth microdilution method", "assay_type": "functional"}, "[14]": {"tested_on": "Candida albicans", "assay": "Synergistic antifungal activity against FLC-resistant Candida albicans 17 assessed as fungal growth inhibition incubated for 48 hrs in presence of FLC by broth microdilution method", "assay_type": "functional"}, "[15]": {"tested_on": "Candida albicans", "assay": "Synergistic antifungal activity against FLC-resistant Candida albicans 249 assessed as fungal growth inhibition incubated for 48 hrs in presence of FLC by broth microdilution method", "assay_type": "functional"}, "[16]": {"tested_on": "Candida albicans", "assay": "Synergistic antifungal activity against FLC-resistant Candida albicans 538 assessed as fungal growth inhibition incubated for 48 hrs in presence of FLC by broth microdilution method", "assay_type": "functional"}, "[17]": {"tested_on": "Candida albicans", "assay": "Synergistic antifungal activity against FLC-resistant Candida albicans 605141 assessed as fungal growth inhibition incubated for 48 hrs in presence of FLC by broth microdilution method", "assay_type": "functional"}, "[18]": {"tested_on": "Candida albicans", "assay": "Synergistic antifungal activity against FLC-resistant Candida albicans 710452 assessed as fungal growth inhibition incubated for 48 hrs in presence of FLC by broth microdilution method", "assay_type": "functional"}, "[19]": {"tested_on": "Candida albicans", "assay": "Synergistic antifungal activity against FLC-resistant Candida albicans 710506 assessed as fungal growth inhibition incubated for 48 hrs in presence of FLC by broth microdilution method", "assay_type": "functional"}, "[20]": {"tested_on": "Candida albicans", "assay": "Synergistic antifungal activity against FLC-resistant Candida albicans 304103 assessed as fractional inhibitory concentration index incubated for 48 hrs in presence of FLC by broth microdilution method", "assay_type": "functional"}, "[21]": {"tested_on": "Candida albicans", "assay": "Synergistic antifungal activity against FLC-resistant Candida albicans 8 assessed as fractional inhibitory concentration index incubated for 48 hrs in presence of FLC by broth microdilution method", "assay_type": "functional"}, "[22]": {"tested_on": "Candida albicans", "assay": "Synergistic antifungal activity against FLC-resistant Candida albicans 11 assessed as fractional inhibitory concentration index incubated for 48 hrs in presence of FLC by broth microdilution method", "assay_type": "functional"}, "[23]": {"tested_on": "Candida albicans", "assay": "Synergistic antifungal activity against FLC-resistant Candida albicans 17 assessed as fractional inhibitory concentration index incubated for 48 hrs in presence of FLC by broth microdilution method", "assay_type": "functional"}, "[24]": {"tested_on": "Candida albicans", "assay": "Synergistic antifungal activity against FLC-resistant Candida albicans 241 assessed as fractional inhibitory concentration index incubated for 48 hrs in presence of FLC by broth microdilution method", "assay_type": "functional"}, "[25]": {"tested_on": "Candida albicans", "assay": "Synergistic antifungal activity against FLC-resistant Candida albicans 379 assessed as fractional inhibitory concentration index incubated for 48 hrs in presence of FLC by broth microdilution method", "assay_type": "functional"}, "[26]": {"tested_on": "Candida albicans", "assay": "Synergistic antifungal activity against FLC-resistant Candida albicans 385 assessed as fractional inhibitory concentration index incubated for 48 hrs in presence of FLC by broth microdilution method", "assay_type": "functional"}, "[27]": {"tested_on": "Candida albicans", "assay": "Synergistic antifungal activity against FLC-resistant Candida albicans 395 assessed as fractional inhibitory concentration index incubated for 48 hrs in presence of FLC by broth microdilution method", "assay_type": "functional"}, "[28]": {"tested_on": "Candida albicans", "assay": "Synergistic antifungal activity against FLC-resistant Candida albicans 646 assessed as fractional inhibitory concentration index incubated for 48 hrs in presence of FLC by broth microdilution method", "assay_type": "functional"}, "[29]": {"tested_on": "Candida albicans", "assay": "Synergistic antifungal activity against FLC-resistant Candida albicans 1221 assessed as fractional inhibitory concentration index incubated for 48 hrs in presence of FLC by broth microdilution method", "assay_type": "functional"}, "[30]": {"tested_on": "Candida albicans", "assay": "Synergistic antifungal activity against FLC-resistant Candida albicans 710554 assessed as fractional inhibitory concentration index incubated for 48 hrs in presence of FLC by broth microdilution method", "assay_type": "functional"}, "[31]": {"tested_on": "Candida albicans", "assay": "Inhibition of hypha formation in Candida albicans SC5314 at 4 ug/ml incubated for 3 hrs by inverted phase contrast microscopy", "assay_type": "functional, organism-based", "conditions": "dose 4.0 µg/ml"}, "[32]": {"tested_on": "Candida albicans", "assay": "Inhibition of hypha formation in Candida albicans SC5314 at 8 to 16 ug/ml incubated for 3 hrs by inverted phase contrast microscopy", "assay_type": "functional, organism-based", "conditions": "dose 8-16 µg/ml"}, "[33]": {"tested_on": "Candida albicans", "assay": "Inhibition of biofilm formation of Candida albicans SC5314 at 16 ug/ml incubated for 24 hrs by XTT assay relative to control", "assay_type": "functional"}, "[34]": {"tested_on": "Candida albicans", "assay": "Antifungal activity against Candida albicans SC5314 infected in C57BL/6 mouse assessed as mean fungal burden at 2 mg/kg, ip measured after 46 hrs in presence of FLC by plate count method (reference value: 6.902 log10CFU/ml)", "assay_type": "functional"}, "[35]": {"assay": "Toxicity in C57BL/6 mouse infected with Candida albicans SC5314 assessed as animal survival at 2 mg/kg, ip measured after 20 days relative to control", "assay_type": "organism-based", "conditions": "in vivo, 480 h, time 20 day"}, "[36]": {"assay": "Half life in Sprague-Dawley rat at 2 mg/kg, iv by LC-MS/MS analysis", "assay_type": "ADME, organism-based", "conditions": "in vivo"}, "[37]": {"assay": "Volume of distribution at steady state in Sprague-Dawley rat at 2 mg/kg, iv by LC-MS/MS analysis", "assay_type": "ADME, organism-based", "conditions": "in vivo, read-out: Vdss"}, "[38]": {"assay": "Half life in Sprague-Dawley rat at 5 mg/kg, po by LC-MS/MS analysis", "assay_type": "ADME, organism-based", "conditions": "in vivo"}, "[39]": {"assay": "MRT (0 to t) in Sprague-Dawley rat at 5 mg/kg, po by LC-MS/MS analysis", "assay_type": "ADME, organism-based", "conditions": "in vivo"}, "[40]": {"assay": "Toxicity in C57BL/6 mouse infected with Candida albicans SC5314 assessed as animal death at 2 mg/kg, ip measured after 7 days", "assay_type": "organism-based", "conditions": "in vivo, 168 h, time 7 day"}}, "note": "Activity calls are given as the source filed them. The rule behind the calls is not given here.", "data": [{"smiles": "CCN(CC)c1ccc(C(NC(=O)C(C)C)c2ccc3cccnc3c2O)cc1", "note": "(stereo not given)", "values": [{"measurement": "MIC", "setting": "[1]", "value": 0.25, "unit": "µg/mL"}, {"measurement": "MIC", "setting": "[2]", "value": 0.25, "unit": "µg/mL"}, {"measurement": "MIC", "setting": "[3]", "value": 2, "unit": "µg/mL"}, {"measurement": "MIC", "setting": "[4]", "value": 0.25, "unit": "µg/mL"}, {"measurement": "MIC", "setting": "[5]", "value": 0.125, "unit": "µg/mL"}, {"measurement": "MIC", "setting": "[6]", "value": 0.125, "unit": "µg/mL"}, {"measurement": "MIC", "setting": "[7]", "value": 2, "unit": "µg/mL"}, {"measurement": "MIC", "setting": "[8]", "value": 2, "unit": "µg/mL"}, {"measurement": "MIC", "setting": "[9]", "value": 0.25, "unit": "µg/mL"}, {"measurement": "MIC", "setting": "[10]", "value": 1, "unit": "µg/mL"}, {"measurement": "MIC", "setting": "[11]", "value": 0.031, "unit": "µg/mL"}, {"measurement": "MIC", "setting": "[12]", "value": 8, "unit": "ng/mL"}, {"measurement": "MIC", "setting": "[13]", "value": 0.016, "unit": "µg/mL"}, {"measurement": "MIC", "setting": "[14]", "value": 0.016, "unit": "µg/mL"}, {"measurement": "MIC", "setting": "[15]", "value": 8, "unit": "ng/mL"}, {"measurement": "MIC", "setting": "[16]", "value": 8, "unit": "ng/mL"}, {"measurement": "MIC", "setting": "[17]", "value": 0.031, "unit": "µg/mL"}, {"measurement": "MIC", "setting": "[18]", "value": 0.016, "unit": "µg/mL"}, {"measurement": "MIC", "setting": "[19]", "value": 0.031, "unit": "µg/mL"}, {"measurement": "fractional inhibitory concentration index (FICI)", "setting": "[20]", "value": 0.047}, {"measurement": "fractional inhibitory concentration index (FICI)", "setting": "[21]", "value": 0.252}, {"measurement": "fractional inhibitory concentration index (FICI)", "setting": "[22]", "value": 0.039}, {"measurement": "fractional inhibitory concentration index (FICI)", "setting": "[23]", "value": 0.035}, {"measurement": "fractional inhibitory concentration index (FICI)", "setting": "[24]", "value": 0.039}, {"measurement": "fractional inhibitory concentration index (FICI)", "setting": "[25]", "value": 0.039}, {"measurement": "fractional inhibitory concentration index (FICI)", "setting": "[26]", "value": 0.078}, {"measurement": "fractional inhibitory concentration index (FICI)", "setting": "[27]", "value": 0.133}, {"measurement": "fractional inhibitory concentration index (FICI)", "setting": "[28]", "value": 0.133}, {"measurement": "fractional inhibitory concentration index (FICI)", "setting": "[29]", "value": 0.126}, {"measurement": "fractional inhibitory concentration index (FICI)", "setting": "[30]", "value": 0.066}, {"measurement": "inhibition", "setting": "[31]", "value": "inactive"}, {"measurement": "inhibition", "setting": "[32]", "value": "Active"}, {"measurement": "inhibition at 16 µg/mL", "setting": "[33]", "value": 29.8, "unit": "%"}, {"measurement": "Activity", "setting": "[34]", "value": 5.244, "unit": "log10CFU/ml"}, {"measurement": "Survival", "setting": "[35]", "value": 20, "unit": "%"}, {"measurement": "half-life", "setting": "[36]", "value": 317, "unit": "min"}, {"measurement": "Vd", "setting": "[37]", "value": 4.75, "unit": "L/kg"}, {"measurement": "half-life", "setting": "[38]", "value": 60, "unit": "min"}, {"measurement": "MRT last", "setting": "[39]", "value": 48.8, "unit": "min"}]}, {"smiles": "Oc1c(I)cc(Cl)c2cccnc12", "note": "[CLIOQUINOL]", "values": [{"measurement": "Activity", "setting": "[40]", "value": "Non-Toxic"}]}]}
